Test results published in ChEMBL document CHEMBL3351784, “Synthesis and evaluation of anti-inflammatory activity of derivatives of the marine natural products fuscol and eunicol” (Bioorg Med Chem Lett, 2014).

Experiments:
[1] = system: Mus musculus; assay: Toxicity in mouse at 0.1 mg/ear administered topically; format: organism-based; conditions: in vivo, topical_or_ocular
[2] = system: Mus musculus; assay: Antiinflammatory activity in mouse assessed as reduction in PMA-induced ear edema at 0.1 mg/ear administered topically measured after 24 hrs relative to control; format: functional; set-up: scale not given: the % may be the effect or the level left
[3] = system: Mus musculus; assay: Antiinflammatory activity in mouse assessed as reduction in PMA-induced ear edema at 3 mg/ear administered topically relative to control; format: functional; set-up: scale not given: the % may be the effect or the level left

C/C(=C\C=C\C(C)(C)O)C(C)C
Activity [1]: Non-toxic | Activity [2]: 80%

C/C(=C\C=C\C(C)(C)O)C1CCCCC1
Activity [1]: Non-toxic | Activity [2]: 62%

C/C(=C\C=C\C(C)(C)O)c1ccccc1
Activity [1]: Non-toxic | Activity [2]: 0%

CC1=CCC(/C(C)=C/C=C/C(C)(C)O)CC1 (stereo not given)
Activity [1]: Non-toxic | Activity [2]: 58%

C/C(=C\C=C\C(C)(C)O)C1CC[C@@H](C)C[C@H]1O (stereo not given in full)
Activity [1]: Non-toxic | Activity [2]: 71%

C/C(=C\C=C\C(C)(C)O)C1CCc2ccccc2C1 (stereo not given)
Activity [1]: Non-toxic | Activity [2]: 58%

C=C[C@@]1(C)CC[C@H](/C(C)=C/C=C/C(C)(C)O)C[C@@H]1C(=C)C [FUSCOL]
Activity [1]: Non-toxic | Activity [2]: 46%

COc1ccc2c(c1)c(CC(=O)O)c(C)n2C(=O)c1ccc(Cl)cc1 [INDOMETHACIN]
Activity [3]: 51%
